Results reported in patent US12655116B2, “Substituted isophthalic acid diamides” (Bayer Aktiengesellschaft, priority 2020, dated 2026).

Key:
[1] = test system: ABUTH; experiment: Pre-emergence herbicidal action against ABUTH; type: in vivo, Abutilon theophrasti; conditions: Abutilon theophrasti, 504 h
Method in brief: (§1)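 Herbicidal effect was assessed 3 weeks after treatment by visual comparison with untreated controls, 100% denoting dead plants. Aqueous WP or EC preparations had been applied at 600 to 800 l/ha with 0.2% wetting agent to the soil covering freshly sown seeds.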

[2] = test system: ECHCG; experiment: Pre-emergence herbicidal action against ECHCG; type: in vivo, Echinochloa crus-galli; conditions: Echinochloa crus-galli, 504 h, 80 g/ha
Method in brief: as §1

[3] = test system: SETVI; experiment: Pre-emergence herbicidal action against SETVI; type: in vivo, Setaria viridis; conditions: Setaria viridis, 504 h
Method in brief: as §1

[4] = test system: VERPE; experiment: Post-emergence herbicidal action against VERPE; type: in vivo, Veronica persica; conditions: Veronica persica, 504 h, 20 g/ha
Method in brief: (§2)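 Post-emergence greenhouse test; one-leaf stage, 2–3 wk post-sowing, sandy loam. Foliar spray of WP/EC in water, 600–800 l/ha, +0.2% wetting agent. Visual % action at ~3 wk vs untreated (100% = plants dead).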

[5] = test system: AMARE; experiment: Pre-emergence herbicidal action against AMARE; type: in vivo, Amaranthus retroflexus; conditions: Amaranthus retroflexus, 504 h, scored visually after 3 weeks vs untreated controls, 100% = plants have died, 0% = like control plants
Method in brief: as §1

[6] = test system: AVEFA; experiment: Pre-emergence herbicidal action against AVEFA; type: in vivo, Avena fatua; conditions: Avena fatua, 504 h; 80 g/ha, pre-emergence
Method in brief: as §1

[7] = test system: PHBPU; experiment: Pre-emergence herbicidal action against PHBPU; type: in vivo, Pharbitis purpurea; conditions: Ipomoea purpurea, 504 h, dosage 80 g/ha
Method in brief: as §1

[8] = test system: ALOMY; experiment: Post-emergence herbicidal action against ALOMY; type: in vivo, Alopecurus myosuroides; conditions: Alopecurus myosuroides, 504 h, visual assessment about 3 weeks after treatment vs untreated controls
Method in brief: as §2

[9] = test system: VERPE; experiment: Pre-emergence herbicidal action against VERPE; type: in vivo, Veronica persica; conditions: Veronica persica, 504 h, dosage 80 g/ha
Method in brief: as §1

[10] = test system: SETVI; experiment: Post-emergence herbicidal action against SETVI; type: in vivo, Setaria viridis; conditions: Setaria viridis, 504 h
Method in brief: as §2

[11] = test system: LOLRI; experiment: Pre-emergence herbicidal action against LOLRI; type: in vivo, Lolium rigidum; conditions: Lolium rigidum, 504 h, 80 g/ha
Method in brief: as §1

[12] = test system: VIOTR; experiment: Post-emergence herbicidal action against VIOTR; type: in vivo, Viola tricolor; conditions: Viola tricolor, 504 h
Method in brief: as §2

[13] = test system: DIGSA; experiment: Pre-emergence herbicidal action against DIGSA; type: in vivo, Digitaria sanguinalis; conditions: Digitaria sanguinalis, 504 h
Method in brief: as §1

[14] = test system: ALOMY; experiment: Pre-emergence herbicidal action against ALOMY; type: in vivo, Alopecurus myosuroides; conditions: Alopecurus myosuroides, 504 h, pre-emergence
Method in brief: as §1

[15] = test system: MATIN; experiment: Pre-emergence herbicidal action against MATIN; type: in vivo, Matricaria inodora; conditions: Tripleurospermum inodorum, 504 h
Method in brief: as §1

[16] = test system: AMARE; experiment: Post-emergence herbicidal action against AMARE; type: in vivo, Amaranthus retroflexus; conditions: Amaranthus retroflexus, 504 h, 20 g/ha, visual assessment about 3 weeks after treatment, 100% = plants have died, 0% = like control plants
Method in brief: as §2

[17] = test system: ABUTH; experiment: Post-emergence herbicidal action against ABUTH; type: in vivo, Abutilon theophrasti; conditions: Abutilon theophrasti, 504 h, visual assessment about 3 weeks after treatment vs untreated controls
Method in brief: as §2

[18] = test system: VIOTR; experiment: Pre-emergence herbicidal action against VIOTR; type: in vivo, Viola tricolor; conditions: Viola tricolor, 504 h
Method in brief: as §1

[19] = test system: MATIN; experiment: Post-emergence herbicidal action against MATIN; type: in vivo, Matricaria inodora; conditions: Tripleurospermum inodorum, 504 h
Method in brief: as §2

[20] = 80 g/ha, scored visually after 3 weeks vs untreated controls (100% = plants have died, 0% = like control plants)

CCn1nnnc1NC(=O)c1ccc(Br)c(C(=O)NC)c1Cl [Example 2-177]
100%: pest or weed control at 80 g/ha [1, 20] | pest or weed control at 20 g/ha ([3]; dosage 20 g/ha) | pest or weed control at 80 g/ha ([3]; dosage 80 g/ha) | pest or weed control at 20 g/ha ([5]; 20 g/ha) | pest or weed control at 80 g/ha ([5]; 80 g/ha) | pest or weed control at 20 g/ha ([8]; dosage 20 g/ha) | pest or weed control at 20 g/ha ([12]; 20 g/ha) | pest or weed control at 20 g/ha ([13]; dosage 20 g/ha) | pest or weed control at 80 g/ha ([13]; dosage 80 g/ha) | pest or weed control at 80 g/ha [14, 20] | pest or weed control at 80 g/ha ([15]; dosage 80 g/ha) | pest or weed control at 20 g/ha [16] | pest or weed control at 20 g/ha ([18]; dosage 20 g/ha) | pest or weed control at 80 g/ha ([18]; dosage 80 g/ha)
80%: pest or weed control at 20 g/ha [4] | pest or weed control at 80 g/ha [7] | pest or weed control at 5 g/ha ([8]; dosage 5 g/ha) | pest or weed control at 80 g/ha [9] | pest or weed control at 5 g/ha ([12]; 5 g/ha) | pest or weed control at 5 g/ha ([17]; dosage 5 g/ha)
90%: pest or weed control at 20 g/ha ([1]; dosage 20 g/ha, scored visually after 3 weeks vs untreated controls, 100% = plants have died, 0% = like control plants, read-out: Pre-emergence action against ABUTH (herbicidal activity in percent)) | pest or weed control at 80 g/ha [2] | pest or weed control at 80 g/ha [6] | pest or weed control at 5 g/ha ([10]; dosage 5 g/ha) | pest or weed control at 20 g/ha ([10]; dosage 20 g/ha) | pest or weed control at 80 g/ha [11] | pest or weed control at 20 g/ha ([14]; 20 g/ha, scored visually after 3 weeks, 100% = plants have died, 0% = like control plants) | pest or weed control at 20 g/ha ([15]; dosage 20 g/ha) | pest or weed control at 20 g/ha ([17]; dosage 20 g/ha) | pest or weed control at 5 g/ha ([19]; dosage 5 g/ha) | pest or weed control at 20 g/ha ([19]; dosage 20 g/ha)
